From article PMC9234961 (Journal of Medicinal Chemistry, 2022)
Like-named read-outs stand apart in the source and are kept apart here.

Legend:
kinases (468) [1] = target: kinases (468) (Homo sapiens, UniProt Q8IU85); details: CAMK1D; 1000 nM
kinases (468) [2] = target: kinases (468) (Homo sapiens, UniProt O95747); details: OSR1 (OXSR1); 1000 nM
kinases (468) [3] = target: kinases (468) (Homo sapiens, UniProt P07332); details: FES; 1000 nM
kinases (468) [4] = target: kinases (468) (Homo sapiens, UniProt P00533, G719C); details: EGFR(G719C); 1000 nM
kinases (468) [5] = target: kinases (468) (Homo sapiens, UniProt O75116); details: kinase ROCK2 (Entrez ROCK2); compound concentration 1000 nM
kinases (468) (Homo sapiens, UniProt O75116), sequence (O75116 whole entry): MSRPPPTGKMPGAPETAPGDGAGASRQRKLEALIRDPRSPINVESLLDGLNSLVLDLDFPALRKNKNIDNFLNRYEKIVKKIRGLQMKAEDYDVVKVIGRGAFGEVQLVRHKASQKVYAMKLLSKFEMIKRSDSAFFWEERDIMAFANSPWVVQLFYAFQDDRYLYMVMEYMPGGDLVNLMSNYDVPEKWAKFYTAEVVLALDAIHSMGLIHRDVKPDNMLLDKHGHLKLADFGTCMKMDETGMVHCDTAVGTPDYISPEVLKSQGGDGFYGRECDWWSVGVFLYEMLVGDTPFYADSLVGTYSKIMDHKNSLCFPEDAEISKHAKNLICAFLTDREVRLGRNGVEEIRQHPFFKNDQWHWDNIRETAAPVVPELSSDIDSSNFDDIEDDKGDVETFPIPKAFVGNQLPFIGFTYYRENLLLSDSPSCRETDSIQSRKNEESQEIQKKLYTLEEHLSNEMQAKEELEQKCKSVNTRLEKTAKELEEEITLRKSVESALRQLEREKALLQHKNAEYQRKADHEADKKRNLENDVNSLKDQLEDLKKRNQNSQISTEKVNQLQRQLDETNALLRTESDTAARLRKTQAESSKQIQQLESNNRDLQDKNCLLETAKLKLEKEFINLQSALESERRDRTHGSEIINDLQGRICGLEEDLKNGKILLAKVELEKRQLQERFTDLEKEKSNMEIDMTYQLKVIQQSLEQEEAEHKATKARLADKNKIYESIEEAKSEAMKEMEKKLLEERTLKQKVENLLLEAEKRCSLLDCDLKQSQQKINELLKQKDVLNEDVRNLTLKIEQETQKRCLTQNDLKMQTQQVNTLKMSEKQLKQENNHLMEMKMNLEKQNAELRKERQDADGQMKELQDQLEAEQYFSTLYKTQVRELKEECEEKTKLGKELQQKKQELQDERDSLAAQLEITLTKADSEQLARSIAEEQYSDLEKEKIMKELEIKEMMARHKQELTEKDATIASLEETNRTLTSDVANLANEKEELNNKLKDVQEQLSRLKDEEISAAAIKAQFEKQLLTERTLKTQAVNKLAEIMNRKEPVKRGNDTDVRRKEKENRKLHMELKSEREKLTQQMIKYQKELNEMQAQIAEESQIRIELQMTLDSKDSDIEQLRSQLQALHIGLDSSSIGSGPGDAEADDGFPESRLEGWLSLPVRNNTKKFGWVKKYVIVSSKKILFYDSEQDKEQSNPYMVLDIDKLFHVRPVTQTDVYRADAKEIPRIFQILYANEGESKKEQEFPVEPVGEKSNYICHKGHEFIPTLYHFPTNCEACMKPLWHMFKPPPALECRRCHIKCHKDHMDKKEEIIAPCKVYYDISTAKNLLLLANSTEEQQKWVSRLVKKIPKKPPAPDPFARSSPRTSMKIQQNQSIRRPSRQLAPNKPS

kinases (468) [6] = target: kinases (468) (Homo sapiens, UniProt Q06187); details: BTK; 1000 nM
kinases (468) [7] = target: kinases (468) (Homo sapiens, UniProt P41743); details: PRKCI; 1000 nM
kinases (468) [8] = target: kinases (468) (Homo sapiens, UniProt P24941); details: CDK2; 1000 nM
kinases (468) [9] = target: kinases (468) (Homo sapiens, UniProt P00519, Q252H); details: 1000 nM
kinases (468) [10] = target: kinases (468) (Homo sapiens, UniProt Q8N4C8); details: MINK (MINK1); 1000 nM
kinases (468) [11] = target: kinases (468) (Homo sapiens, UniProt Q00536); details: PCTK1 (CDK16); 1000 nM
kinases (468) [12] = target: kinases (468) (Homo sapiens, UniProt Q9Y2U5); details: MAP3K2; 1000 nM
kinases (468) [13] = target: kinases (468) (Homo sapiens, UniProt Q7L7X3); details: kinase TAOK1 (Entrez TAOK1); compound concentration 1000 nM
kinases (468) [14] = target: kinases (468) (Homo sapiens, UniProt O15530); details: PDPK1; 1000 nM
kinases (468) [15] = target: kinases (468) (Homo sapiens, UniProt Q2M2I8); details: AAK1; 1000 nM
kinases (468) [16] = target: kinases (468) (Homo sapiens, UniProt Q99755); details: PIP5K1A; 1000 nM
kinases (468) [17] = target: kinases (468) (Homo sapiens, UniProt Q02763); details: kinase TIE2 (Entrez TEK); compound concentration 1000 nM
kinases (468) [18] = target: kinases (468) (Homo sapiens, UniProt P0C264); details: kinase SgK110 (Entrez SgK110); compound concentration 1000 nM
kinases (468) [19] = target: kinases (468) (Homo sapiens, UniProt P42336, E545K); details: PIK3CA(E545K); 1000 nM
kinases (468) (Homo sapiens, UniProt P42336, E545K), sequence (P42336 whole entry E545K): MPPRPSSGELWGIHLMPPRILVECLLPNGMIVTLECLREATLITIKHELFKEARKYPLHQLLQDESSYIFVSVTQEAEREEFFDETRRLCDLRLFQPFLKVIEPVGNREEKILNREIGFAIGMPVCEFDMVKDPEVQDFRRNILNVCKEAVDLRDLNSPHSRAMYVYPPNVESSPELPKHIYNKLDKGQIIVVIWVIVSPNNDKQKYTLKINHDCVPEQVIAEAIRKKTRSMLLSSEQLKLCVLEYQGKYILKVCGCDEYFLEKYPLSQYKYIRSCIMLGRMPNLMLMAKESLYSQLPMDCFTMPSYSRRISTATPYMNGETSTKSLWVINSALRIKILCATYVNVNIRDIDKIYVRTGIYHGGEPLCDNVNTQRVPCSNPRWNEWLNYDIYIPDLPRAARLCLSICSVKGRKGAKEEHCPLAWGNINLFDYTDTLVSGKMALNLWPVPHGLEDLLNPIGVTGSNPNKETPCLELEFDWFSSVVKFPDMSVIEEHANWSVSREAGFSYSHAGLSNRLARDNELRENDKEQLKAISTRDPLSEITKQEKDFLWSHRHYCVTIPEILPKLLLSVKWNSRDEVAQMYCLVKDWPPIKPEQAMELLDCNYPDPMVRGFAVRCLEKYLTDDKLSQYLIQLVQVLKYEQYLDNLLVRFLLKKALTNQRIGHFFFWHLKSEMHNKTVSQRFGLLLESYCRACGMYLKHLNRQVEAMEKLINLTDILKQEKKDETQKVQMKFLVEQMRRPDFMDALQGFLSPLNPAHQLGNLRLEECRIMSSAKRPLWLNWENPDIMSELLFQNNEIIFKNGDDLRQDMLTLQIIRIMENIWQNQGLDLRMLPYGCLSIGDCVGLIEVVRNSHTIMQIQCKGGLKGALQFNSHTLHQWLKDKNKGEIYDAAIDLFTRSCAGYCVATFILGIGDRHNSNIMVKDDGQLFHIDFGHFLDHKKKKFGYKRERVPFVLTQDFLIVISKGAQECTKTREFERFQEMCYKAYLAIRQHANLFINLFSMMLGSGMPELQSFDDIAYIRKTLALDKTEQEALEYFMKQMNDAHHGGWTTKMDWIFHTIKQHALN

kinases (468) [20] = target: kinases (468) (Homo sapiens, UniProt Q8IWQ3); details: BRSK2; 1000 nM
kinases (468) [21] = target: kinases (468) (Homo sapiens, UniProt Q04912); details: MST1R; 1000 nM
kinases (468) [22] = target: kinases (468) (Homo sapiens, UniProt O43283); details: LZK (MAP3K13); 1000 nM
kinases (468) [23] = target: kinases (468) (Homo sapiens, UniProt Q8IW41); details: MAPKAPK5; 1000 nM
kinases (468) (Homo sapiens, UniProt Q8IW41), sequence (Q8IW41 whole entry): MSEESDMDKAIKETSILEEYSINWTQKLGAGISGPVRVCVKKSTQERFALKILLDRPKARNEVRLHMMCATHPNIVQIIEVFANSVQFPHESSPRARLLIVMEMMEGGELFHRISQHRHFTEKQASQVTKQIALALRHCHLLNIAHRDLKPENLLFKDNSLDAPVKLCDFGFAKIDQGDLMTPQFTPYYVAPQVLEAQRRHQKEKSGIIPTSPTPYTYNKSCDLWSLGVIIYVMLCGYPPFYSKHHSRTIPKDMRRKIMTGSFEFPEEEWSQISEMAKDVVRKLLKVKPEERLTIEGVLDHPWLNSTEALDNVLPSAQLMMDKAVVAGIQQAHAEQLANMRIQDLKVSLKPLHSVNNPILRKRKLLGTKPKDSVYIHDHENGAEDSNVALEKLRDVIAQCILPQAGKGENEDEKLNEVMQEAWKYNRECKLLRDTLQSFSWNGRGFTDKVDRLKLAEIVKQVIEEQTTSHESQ

kinases (468) [24] = target: kinases (468) (Mycobacterium tuberculosis, UniProt P9WI81); details: PKNB(M.tuberculosis) (pknB); 1000 nM
kinases (468) [25] = target: kinases (468) (Homo sapiens, UniProt P04049); details: RAF1; 1000 nM
kinases (468) (Homo sapiens, UniProt P04049), sequence (P04049 whole entry): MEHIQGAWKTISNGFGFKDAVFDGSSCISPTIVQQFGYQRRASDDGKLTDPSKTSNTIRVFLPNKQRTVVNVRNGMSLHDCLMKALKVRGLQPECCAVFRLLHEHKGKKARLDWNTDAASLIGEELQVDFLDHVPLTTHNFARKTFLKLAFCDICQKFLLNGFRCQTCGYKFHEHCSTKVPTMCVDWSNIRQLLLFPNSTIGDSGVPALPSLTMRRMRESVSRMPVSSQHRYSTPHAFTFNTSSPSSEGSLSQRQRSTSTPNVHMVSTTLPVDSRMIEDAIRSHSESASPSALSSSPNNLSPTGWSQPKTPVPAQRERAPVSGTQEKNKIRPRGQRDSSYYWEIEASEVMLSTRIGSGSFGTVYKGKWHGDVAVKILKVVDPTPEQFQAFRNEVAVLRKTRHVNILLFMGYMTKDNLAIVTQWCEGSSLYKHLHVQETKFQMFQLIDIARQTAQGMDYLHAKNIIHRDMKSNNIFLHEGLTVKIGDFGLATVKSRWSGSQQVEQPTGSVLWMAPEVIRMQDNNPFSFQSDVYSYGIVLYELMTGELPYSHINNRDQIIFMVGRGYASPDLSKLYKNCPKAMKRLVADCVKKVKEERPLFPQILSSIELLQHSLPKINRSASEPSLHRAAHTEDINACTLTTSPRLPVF

kinases (468) [26] = target: kinases (468) (Homo sapiens, UniProt Q9BZL6); details: PRKD2; 1000 nM
kinases (468) [27] = target: kinases (468) (Homo sapiens, UniProt P00519, M351T); details: ABL1(M351T)-phosphorylated; 1000 nM
kinases (468) [28] = target: kinases (468) (Homo sapiens, UniProt P42336, Q546K); details: PIK3CA(Q546K); 1000 nM
kinases (468) (Homo sapiens, UniProt P42336, Q546K), sequence (P42336 whole entry Q546K): as the sequence (P42336 whole entry E545K) above, with K545E, Q546K counted along it

kinases (468) [29] = target: kinases (468) (Homo sapiens, UniProt Q9UBE8); details: NLK; 1000 nM
kinases (468) (Homo sapiens, UniProt Q9UBE8), sequence (Q9UBE8 whole entry): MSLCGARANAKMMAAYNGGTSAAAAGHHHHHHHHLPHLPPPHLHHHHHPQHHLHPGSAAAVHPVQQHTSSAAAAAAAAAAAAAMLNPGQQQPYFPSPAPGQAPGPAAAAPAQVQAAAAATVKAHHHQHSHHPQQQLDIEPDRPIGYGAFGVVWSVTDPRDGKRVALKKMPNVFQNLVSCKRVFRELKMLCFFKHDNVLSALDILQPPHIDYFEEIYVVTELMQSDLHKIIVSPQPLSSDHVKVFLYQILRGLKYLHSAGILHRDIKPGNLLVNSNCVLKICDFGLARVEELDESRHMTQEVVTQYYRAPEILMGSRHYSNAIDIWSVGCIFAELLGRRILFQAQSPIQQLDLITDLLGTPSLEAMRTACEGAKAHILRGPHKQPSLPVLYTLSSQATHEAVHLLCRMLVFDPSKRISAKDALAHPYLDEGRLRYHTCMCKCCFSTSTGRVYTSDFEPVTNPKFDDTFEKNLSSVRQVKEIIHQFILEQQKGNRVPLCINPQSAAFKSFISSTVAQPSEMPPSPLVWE

kinases (468) [30] = target: kinases (468) (Homo sapiens, UniProt P36888, D835Y); details: FLT3(D835Y); 1000 nM
kinases (468) [31] = target: kinases (468) (Homo sapiens, UniProt Q96GD4); details: AURKB; 1000 nM
kinases (468) (Homo sapiens, UniProt Q96GD4), sequence (Q96GD4 whole entry): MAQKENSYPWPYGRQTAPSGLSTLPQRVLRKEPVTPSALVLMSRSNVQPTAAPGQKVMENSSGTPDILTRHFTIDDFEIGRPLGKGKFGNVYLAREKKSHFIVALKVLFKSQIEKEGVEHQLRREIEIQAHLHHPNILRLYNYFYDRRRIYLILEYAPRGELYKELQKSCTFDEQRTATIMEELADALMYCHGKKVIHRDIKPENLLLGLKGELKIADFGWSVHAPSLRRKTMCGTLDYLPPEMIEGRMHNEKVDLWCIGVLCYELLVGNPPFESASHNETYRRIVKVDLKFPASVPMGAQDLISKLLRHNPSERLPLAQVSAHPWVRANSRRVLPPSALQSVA

kinases (468) [32] = target: kinases (468) (Homo sapiens, UniProt P07948); details: LYN; 1000 nM
kinases (468) [33] = target: kinases (468) (Homo sapiens, UniProt P42684); details: ABL2; 1000 nM
kinases (468) [34] = target: kinases (468) (Homo sapiens, UniProt O14965); details: AURKA; 1000 nM
kinases (468) [35] = target: kinases (468) (Homo sapiens, UniProt Q05655); details: PRKCD; 1000 nM

kinases (468) (Homo sapiens, UniProt O95747), sequence (O95747 whole entry): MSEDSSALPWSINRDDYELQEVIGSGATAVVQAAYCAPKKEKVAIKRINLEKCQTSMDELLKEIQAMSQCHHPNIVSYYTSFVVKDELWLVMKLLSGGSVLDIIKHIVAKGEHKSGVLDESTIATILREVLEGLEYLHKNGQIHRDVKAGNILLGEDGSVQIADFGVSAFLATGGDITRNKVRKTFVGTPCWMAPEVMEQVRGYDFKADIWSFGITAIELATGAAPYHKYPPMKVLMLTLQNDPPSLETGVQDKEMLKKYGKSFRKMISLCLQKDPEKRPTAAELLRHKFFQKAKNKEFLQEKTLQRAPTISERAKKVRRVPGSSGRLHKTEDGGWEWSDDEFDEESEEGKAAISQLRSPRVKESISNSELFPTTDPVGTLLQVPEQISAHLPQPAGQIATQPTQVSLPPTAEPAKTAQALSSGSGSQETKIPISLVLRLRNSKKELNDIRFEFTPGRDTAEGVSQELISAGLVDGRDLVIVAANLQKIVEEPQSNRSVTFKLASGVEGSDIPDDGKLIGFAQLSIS

## C[C@H]1C[C@@H](O)CN(c2ncc(Cl)c(Nc3ccc4c(c3)c3c(c(=O)n4C)OCC(F)(F)[C@H](C4CC4)N3)n2)C1 [CCT373566_9A]
Kinases (468) [1]
  Percent Control: 92%
Kinases (468) [2]
  Percent Control: 100%
Kinases (468) [3]
  Percent Control: 100%
Kinases (468) [4]
  Percent Control: 94%
Kinases (468) [5]
  Percent Control: 94%
Kinases (468) [6]
  Percent Control: 100%
Kinases (468) [7]
  Percent Control: 88%
Kinases (468) [8]
  Percent Control: 96%
Kinases (468) [9]; ABL1(Q252H)-nonphosphorylated
  Percent Control: 94%
Kinases (468) [9]; ABL1(Q252H)-phosphorylated
  Percent Control: 98%
Kinases (468) [10]
  Percent Control: 87%
Kinases (468) [11]
  Percent Control: 100%
Kinases (468) [12]
  Percent Control: 95%
Kinases (468) [13]
  Percent Control: 99%
Kinases (468) [14]
  Percent Control: 100%
Kinases (468) [15]
  Percent Control: 93%
Kinases (468) [16]
  Percent Control: 77%
Kinases (468) [17]
  Percent Control: 100%
Kinases (468) [18]
  Percent Control: 95%
Kinases (468) [19]
  Percent Control: 95%
Kinases (468) [20]
  Percent Control: 100%
Kinases (468) [21]
  Percent Control: 91%
Kinases (468) [22]
  Percent Control: 81%
Kinases (468) [23]
  Percent Control: 100%
Kinases (468) [24]
  Percent Control: 100%
Kinases (468) [25]
  Percent Control: 92%
Kinases (468) [26]
  Percent Control: 94%
Kinases (468) [27]
  Percent Control: 90%
Kinases (468) [28]
  Percent Control: 89%
Kinases (468) [29]
  Percent Control: 100%
Kinases (468) [30]
  Percent Control: 90%
Kinases (468) [31]
  Percent Control: 92%
Kinases (468) [32]
  Percent Control: 88%
Kinases (468) [33]
  Percent Control: 100%
Kinases (468) [34]
  Percent Control: 100%
Kinases (468) [35]
  Percent Control: 100%
